Measured values: patent publication US20070128217A1 (priority 2003, published 2007)

Columns and labels:
[1] = tested on: antibodies in sera from SARS patients (sera 1a, 1b, 2, 6, 37, 62, London, SARS-yellow, SARS-green); assay type: binding, human; parameters: Binding of serum 6 to linear peptides of protein X1 of SARS-CoV Urbani / Binding of serum 37 to linear peptides of protein X1 of SARS-CoV Urbani / Binding of serum 6 to looped/cyclic peptide (PEPSCAN-ELISA) / Binding of serum 37 to looped/cyclic peptide (PEPSCAN-ELISA) / Binding of serum 37 to looped/cyclic peptides of protein X1 of SARS-CoV Urbani / Binding of serum 6 to linear peptides of protein X2 / Binding of serum 37 to linear peptides of protein X2 / Binding of serum 37 to looped/cyclic peptides of protein X2 of SARS-CoV Urbani / Binding of serum 6 to linear peptides of protein M of SARS-CoV Urbani / Binding of serum 37 to linear peptides of protein M of SARS-CoV Urbani / Binding of serum 6 to looped/cyclic peptides of protein M of SARS-CoV Urbani / Binding of serum 37 to looped/cyclic peptides of protein M of SARS-CoV Urbani / Binding of serum 6 to linear peptides of protein X3 of SARS-CoV Urbani / Binding of serum 37 to linear peptides of protein X3 of SARS-CoV Urbani / Binding of serum 37 to looped/cyclic peptides of protein X3 of SARS-CoV Urbani / Binding of serum 6 to linear peptides of protein X4 of SARS-CoV Urbani / Binding of serum 37 to linear peptides of protein X4 of SARS-CoV Urbani / Binding of serum 37 to looped/cyclic peptides of protein X4 of SARS-CoV Urbani / Binding of serum 6 to linear peptides of protein X5 of SARS-CoV Urbani / Binding of serum 37 to linear peptides of protein X5 of SARS-CoV Urbani / Binding of serum 37 to looped/cyclic peptides of protein X5 of SARS-CoV Urbani / Binding of serum 6 to linear peptides of protein N of SARS-CoV Urbani / Binding of serum 37 to linear peptides of protein N of SARS-CoV Urbani / Binding of serum 6 to linear peptide (PEPSCAN-ELISA) / Binding of serum 1a to looped/cyclic peptides of protein N of SARS-CoV Urbani / Binding of serum 1b to looped/cyclic peptides of protein N of SARS-CoV Urbani / Binding of serum 2 to looped/cyclic peptides of protein N of SARS-CoV Urbani / Binding of serum 6 to looped/cyclic peptides of protein N of SARS-CoV Urbani / Binding of serum 37 to looped/cyclic peptides of protein N of SARS-CoV Urbani / Binding of serum 62 to looped/cyclic peptides of protein N of SARS-CoV Urbani / Binding of serum London to looped/cyclic peptides of protein N of SARS-CoV Urbani / Binding of serum SARS-green to looped/cyclic peptides of protein N of SARS-CoV Urbani: unit not given here
[2] = tested on: control sera (pooled serum of ten healthy LUMC hospital workers; commercial negative donor pooled serum from the Dutch bloodbank); assay type: binding, human; parameters: Binding of Control serum LUMC to linear peptides / Binding of Control serum Blood-bank to linear peptides / Binding of Control serum LUMC to looped peptides / Binding of Control Serum Blood-Bank to Looped peptides / Binding of Control serum LUMC to linear peptides of the protein M of SARS-CoV Urbani / Binding of Control serum Blood-bank to linear peptides of the protein M of SARS-CoV Urbani / Binding of Control serum LUMC to looped peptides of the protein M of SARS-CoV Urbani / Binding of Control Serum Blood-Bank to Looped peptides of the protein M of SARS-CoV Urbani: unit not given here
[3] = tested on: rabbit serum obtained by immunizing a rabbit with the SARS-CoV strain Frankfurt 1; assay type: binding; parameters: Binding of a rabbit serum to linear peptides / Binding of a rabbit serum to looped peptides / Rabbit serum linear peptides / Rabbit serum looped peptides / Binding of a rabbit serum to linear peptides of protein N of SARS-CoV Urbani (Rabbit serum linear peptides) / Binding of a rabbit serum to looped/cyclic peptides of protein N of SARS-CoV Urbani (Rabbit serum looped peptides): unit not given here

Sequence: QLESTQITTDTGIEN
- Binding of serum 1a to linear peptides of protein X1 of SARS-CoV Urbani [1]: 0.6
- Binding of serum 1a to looped/cyclic peptides of protein X1 of SARS-CoV Urbani [1]: 0.4
- Binding of serum 1b to linear peptides of protein X1 of SARS-CoV Urbani [1]: 0.5
- Binding of serum 1b to looped/cyclic peptides of protein X1 of SARS-CoV Urbani [1]: 0.3
- Binding of serum 2 to linear peptides of protein X1 of SARS-CoV Urbani [1]: 0.4
- Binding of serum 2 to looped/cyclic peptides of protein X1 of SARS-CoV Urbani [1]: 0.3
- Binding of serum 6 to linear peptides of protein X1 of SARS-CoV Urbani [1]: 0.4
- Binding of serum 6 to looped/cyclic peptides of protein X1 of SARS-CoV Urbani [1]: 0.2
- Binding of serum 37 to linear peptides of protein X1 of SARS-CoV Urbani [1]: 0.5
- Binding of serum 37 to looped/cyclic peptides of protein X1 of SARS-CoV Urbani [1]: 0.5
- Binding of serum 62 to linear peptides of protein X1 of SARS-CoV Urbani [1]: 0.5
- Binding of serum 62 to looped/cyclic peptides of protein X1 of SARS-CoV Urbani [1]: 0.5
- Binding of serum London to linear peptides of protein X1 of SARS-CoV Urbani [1]: 0.3
- Binding of serum London to looped/cyclic peptides of protein X1 of SARS-CoV Urbani [1]: 0.2
- Binding of serum SARS-green to linear peptides of protein X1 of SARS-CoV Urbani [1]: 0.2
- Binding of serum SARS-green to looped/cyclic peptides of protein X1 of SARS-CoV Urbani [1]: 0.4
- Binding of serum SARS-yellow to linear peptides of protein X1 of SARS-CoV Urbani [1]: 0.4
- Binding of serum SARS-yellow to looped/cyclic peptides of protein X1 of SARS-CoV Urbani [1]: 0.4
- Binding of Control Serum Blood-Bank to Looped peptides [2]: 0.5
- Binding of Control serum Blood-bank to linear peptides [2]: 0.3
- Binding of Control serum LUMC to linear peptides [2]: 0.5
- Binding of Control serum LUMC to looped peptides [2]: 0.5
- Binding of a rabbit serum to linear peptides [3]: 0.1
- Binding of a rabbit serum to looped peptides [3]: 0.6

Sequence: QLLEQWNLVIGFLFL
- Binding of serum 1a to linear peptides of protein M of SARS-CoV Urbani [1]: 0.7
- Binding of serum 1a to looped/cyclic peptides of protein M of SARS-CoV Urbani [1]: 0.5
- Binding of serum 1b to linear peptides of protein M of SARS-CoV Urbani [1]: 0.4
- Binding of serum 1b to looped/cyclic peptides of protein M of SARS-CoV Urbani [1]: 0.5
- Binding of serum 2 to linear peptides of protein M of SARS-CoV Urbani [1]: 0.5
- Binding of serum 2 to looped/cyclic peptides of protein M of SARS-CoV Urbani [1]: 0.4
- Binding of serum 6 to linear peptides of protein M of SARS-CoV Urbani [1]: 0.4
- Binding of serum 6 to looped/cyclic peptides of protein M of SARS-CoV Urbani [1]: 0.5
- Binding of serum 37 to linear peptides of protein M of SARS-CoV Urbani [1]: 0.6
- Binding of serum 37 to looped/cyclic peptides of protein M of SARS-CoV Urbani [1]: 0.5
- Binding of serum 62 to linear peptides of protein M of SARS-CoV Urbani [1]: 0.6
- Binding of serum 62 to looped/cyclic peptides of protein M of SARS-CoV Urbani [1]: 0.4
- Binding of serum London to linear peptides of protein M of SARS-CoV Urbani [1]: 0.4
- Binding of serum London to looped/cyclic peptides of protein M of SARS-CoV Urbani [1]: 0.2
- Binding of serum SARS-green to linear peptides of protein M of SARS-CoV Urbani [1]: 0.2
- Binding of serum SARS-green to looped/cyclic peptides of protein M of SARS-CoV Urbani [1]: 0.3
- Binding of serum SARS-yellow to linear peptides of protein M of SARS-CoV Urbani [1]: 0.0
- Binding of serum SARS-yellow to looped/cyclic peptides of protein M of SARS-CoV Urbani [1]: 0.7
- Binding of Control Serum Blood-Bank to Looped peptides of the protein M of SARS-CoV Urbani [2]: 0.5
- Binding of Control serum Blood-bank to linear peptides of the protein M of SARS-CoV Urbani [2]: 0.5
- Binding of Control serum LUMC to linear peptides of the protein M of SARS-CoV Urbani [2]: 0.3
- Binding of Control serum LUMC to looped peptides of the protein M of SARS-CoV Urbani [2]: 0.7
- Rabbit serum linear peptides [3]: 0.2
- Rabbit serum looped peptides [3]: 0.0

Sequence: QLRARSVSPKLFIRQ
- Binding of serum 1a to linear peptides of protein X4 of SARS-CoV Urbani [1]: 0.7
- Binding of serum 1a to looped/cyclic peptides of protein X4 of SARS-CoV Urbani [1]: 0.7
- Binding of serum 1b to linear peptides of protein X4 of SARS-CoV Urbani [1]: 0.6
- Binding of serum 1b to looped/cyclic peptides of protein X4 of SARS-CoV Urbani [1]: 0.6
- Binding of serum 2 to linear peptides of protein X4 of SARS-CoV Urbani [1]: 0.6
- Binding of serum 2 to looped/cyclic peptides of protein X4 of SARS-CoV Urbani [1]: 0.8
- Binding of serum 6 to linear peptides of protein X4 of SARS-CoV Urbani [1]: 0.9
- Binding of serum 6 to looped/cyclic peptides of protein X4 of SARS-CoV Urbani [1]: 0.9
- Binding of serum 37 to linear peptides of protein X4 of SARS-CoV Urbani [1]: 0.7
- Binding of serum 37 to looped/cyclic peptides of protein X4 of SARS-CoV Urbani [1]: 0.6
- Binding of serum 62 to linear peptides of protein X4 of SARS-CoV Urbani [1]: 0.7
- Binding of serum 62 to looped/cyclic peptides of protein X4 of SARS-CoV Urbani [1]: 0.6
- Binding of serum London to linear peptides of protein X4 of SARS-CoV Urbani [1]: 0.8
- Binding of serum London to looped/cyclic peptides of protein X4 of SARS-CoV Urbani [1]: 0.4
- Binding of serum SARS-green to linear peptides of protein X4 of SARS-CoV Urbani [1]: 0.6
- Binding of serum SARS-green to looped/cyclic peptides of protein X4 of SARS-CoV Urbani [1]: 0.4
- Binding of serum SARS-yellow to linear peptides of protein X4 of SARS-CoV Urbani [1]: 0.3
- Binding of serum SARS-yellow to looped/cyclic peptides of protein X4 of SARS-CoV Urbani [1]: 0.8
- Binding of Control Serum Blood-Bank to Looped peptides [2]: 0.9
- Binding of Control serum Blood-bank to linear peptides [2]: 0.7
- Binding of Control serum LUMC to linear peptides [2]: 0.6
- Binding of Control serum LUMC to looped peptides [2]: 0.8
- Recognition of the peptide by the rabbit serum [3]: recognized
